Values after ≈ are worked out from the molar mass of the structure shown.
Tests used:
Test in all cases: in vitro antibacterial evaluation, MIC by broth dilution
Format in all cases: cell-based
[1] = system: Escherichia coli; conditions: 18 hours at 35° C.
[2] = system: Staphylococcus sp.; conditions: broth dilution, 18 hours at 35° C.
How it was run: (§1)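 Test organisms, which included recent clinical isolates resistant to methicillin, penicillin and/or vancomycin, were inoculated at 5×10^5 CFU/mL into Muller-Hinton II […] containing antibiotic at 64-0.06 μg/mL. Minimum inhibitory concentrations were then read as the lowest level inhibiting growth.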

[3] = system: Streptococcus sp.; conditions: broth dilution, 18 hours at 35° C.
How it was run: as §1

[4] = system: Enterococcus sp.; conditions: broth dilution, 18 hours at 35° C.
How it was run: as §1

MIC Escherichia coli (ATCC 25922) [1]: 16 µg/mL (≈ 11 µM)
MIC Escherichia coli (GC 4559) [1]: 16 µg/mL (≈ 11 µM)
MIC Escherichia coli (GC 4560) [1]: 2 µg/mL (≈ 1.37 µM)
MIC Coagulase Negative Staphylococcus (GC 4547) [2]: 1 µg/mL (≈ 0.685 µM)
MIC Coagulase Negative Staphylococcus (GC 4548) [2]: 1 µg/mL (≈ 0.685 µM)
MIC Coagulase Negative Staphylococcus (GC 4549) [2]: 1 µg/mL (≈ 0.685 µM)
MIC Coagulase Negative Staphylococcus (GC 4551) [2]: 2 µg/mL (≈ 1.37 µM)
MIC Coagulase Negative Staphylococcus (GC 6257) [2]: 2 µg/mL (≈ 1.37 µM)
MIC Staphylococcus aureus (ATCC 29213) [2]: 2 µg/mL (≈ 1.37 µM)
MIC Staphylococcus aureus (GC 1131) [2]: 4 µg/mL (≈ 2.74 µM)
MIC Staphylococcus aureus (GC 3051) [2]: 1 µg/mL (≈ 0.685 µM)
MIC Staphylococcus aureus (GC 3053) [2]: 2 µg/mL (≈ 1.37 µM)
MIC Staphylococcus aureus (GC 4541) [2]: 1 µg/mL (≈ 0.685 µM)
MIC Staphylococcus aureus (GC 4542) [2]: 1 µg/mL (≈ 0.685 µM)
MIC Staphylococcus aureus (GC 4544) [2]: 2 µg/mL (≈ 1.37 µM)
MIC Staphylococcus aureus (GC 4545) [2]: 2 µg/mL (≈ 1.37 µM)
MIC Staphylococcus aureus-SMITH (GC 4543) [2]: 1 µg/mL (≈ 0.685 µM)
MIC Staphylococcus aureus (ATCC 29213) ([2]; strain ATCC 29213): 2 µg/mL (≈ 1.37 µM)
MIC Staphylococcus aureus (GC 1131) ([2]; strain GC 1131): 4 µg/mL (≈ 2.74 µM)
MIC Staphylococcus aureus (GC 3051) ([2]; strain GC 3051): 1 µg/mL (≈ 0.685 µM)
MIC Staphylococcus aureus (GC 3053) ([2]; strain GC 3053): 2 µg/mL (≈ 1.37 µM)
MIC Staphylococcus aureus (GC 4541) ([2]; strain GC 4541): 1 µg/mL (≈ 0.685 µM)
MIC Staphylococcus aureus (GC 4542) ([2]; strain GC 4542): 1 µg/mL (≈ 0.685 µM)
MIC Staphylococcus aureus-SMITH (GC 4543) ([2]; strain GC 4543): 1 µg/mL (≈ 0.685 µM)
MIC Staphylococcus aureus (GC 4544) ([2]; strain GC 4544): 2 µg/mL (≈ 1.37 µM)
MIC Staphylococcus aureus (GC 4545) ([2]; strain GC 4545): 2 µg/mL (≈ 1.37 µM)
MIC Coagulase Negative Staphylococcus (GC 4547) ([2]; strain GC 4547): 1 µg/mL (≈ 0.685 µM)
MIC Coagulase Negative Staphylococcus (GC 4548) ([2]; strain GC 4548): 1 µg/mL (≈ 0.685 µM)
MIC Coagulase Negative Staphylococcus (GC 4549) ([2]; strain GC 4549): 1 µg/mL (≈ 0.685 µM)
MIC Coagulase Negative Staphylococcus (GC 4551) ([2]; strain GC 4551): 2 µg/mL (≈ 1.37 µM)
MIC Coagulase Negative Staphylococcus (GC 6257) ([2]; strain GC 6257): 2 µg/mL (≈ 1.37 µM)
MIC Streptococcus agalactiae (GC 4564) [3]: 0.5 µg/mL (≈ 0.343 µM)
MIC Streptococcus pneumoniae (ATCC 6301) [3]: 0.25 µg/mL (≈ 0.171 µM)
MIC Streptococcus pneumoniae (GC 1894) [3]: <0.12 µg/mL
MIC Streptococcus pneumoniae (GC 4565) [3]: 0.25 µg/mL (≈ 0.171 µM)
MIC Streptococcus pyogenes (GC 4563) [3]: 0.5 µg/mL (≈ 0.343 µM)
MIC Streptococcus pneumoniae (ATCC 6301) ([3]; inoculum 5×10^5 CFU/mL, strain ATCC 6301): 0.25 µg/mL (≈ 0.171 µM)
MIC Streptococcus pneumoniae (GC 1894) ([3]; inoculum 5×10^5 CFU/mL, strain GC 1894): <0.12 µg/mL
MIC Streptococcus pyogenes (GC 4563) ([3]; inoculum 5×10^5 CFU/mL, strain GC 4563): 0.5 µg/mL (≈ 0.343 µM)
MIC Streptococcus agalactiae (GC 4564) ([3]; inoculum 5×10^5 CFU/mL, strain GC 4564): 0.5 µg/mL (≈ 0.343 µM)
MIC Streptococcus pneumoniae (GC 4565) ([3]; inoculum 5×10^5 CFU/mL, strain GC 4565): 0.25 µg/mL (≈ 0.171 µM)
MIC Enterococcus avium (GC 4558) [4]: 2 µg/mL (≈ 1.37 µM)
MIC Enterococcus faecalis (ATCC 29212) [4]: 4 µg/mL (≈ 2.74 µM)
MIC Enterococcus faecalis (GC 2242) [4]: 4 µg/mL (≈ 2.74 µM)
MIC Enterococcus faecalis (GC 2691) [4]: 8 µg/mL (≈ 5.48 µM)
MIC Enterococcus faecalis (GC 3059) [4]: 4 µg/mL (≈ 2.74 µM)
MIC Enterococcus faecalis (GC 4552) [4]: 4 µg/mL (≈ 2.74 µM)
MIC Enterococcus faecalis (GC 4553) [4]: 2 µg/mL (≈ 1.37 µM)
MIC Enterococcus faecalis (GC 4554) [4]: 4 µg/mL (≈ 2.74 µM)
MIC Enterococcus faecalis (GC 6189) [4]: 4 µg/mL (≈ 2.74 µM)
MIC Enterococcus faecium (GC 2243) [4]: 4 µg/mL (≈ 2.74 µM)
MIC Enterococcus faecium (GC 4556) [4]: 4 µg/mL (≈ 2.74 µM)
MIC Enterococcus faecium (GC 4557) [4]: 2 µg/mL (≈ 1.37 µM)
MIC Enterococcus faecalis (ATCC 29212) ([4]; strain ATCC 29212): 4 µg/mL (≈ 2.74 µM)
MIC Enterococcus faecium (GC 2243) ([4]; strain GC 2243): 4 µg/mL (≈ 2.74 µM)
MIC Enterococcus faecalis (GC 4552) ([4]; strain GC 4552): 4 µg/mL (≈ 2.74 µM)
MIC Enterococcus faecalis (GC 4553) ([4]; strain GC 4553): 2 µg/mL (≈ 1.37 µM)
MIC Enterococcus faecalis (GC 4554) ([4]; strain GC 4554): 4 µg/mL (≈ 2.74 µM)
MIC Enterococcus faecium (GC 4556) ([4]; strain GC 4556): 4 µg/mL (≈ 2.74 µM)
MIC Enterococcus faecium (GC 4557) ([4]; strain GC 4557): 2 µg/mL (≈ 1.37 µM)
MIC Enterococcus avium (GC 4558) ([4]; strain GC 4558): 2 µg/mL (≈ 1.37 µM)
MIC Enterococcus faecalis (GC 6189) ([4]; strain GC 6189): 4 µg/mL (≈ 2.74 µM)
MIC Enterococcus faecalis (GC 2242) ([4]; inoculum 5×10^5 CFU/mL, strain GC 2242): 4 µg/mL (≈ 2.74 µM)
MIC Enterococcus faecalis (GC 2691) ([4]; inoculum 5×10^5 CFU/mL, strain GC 2691): 8 µg/mL (≈ 5.48 µM)
MIC Enterococcus faecalis (GC 3059) ([4]; inoculum 5×10^5 CFU/mL, strain GC 3059): 4 µg/mL (≈ 2.74 µM)
Compound: CC(c1ccccc1)C1NC(=O)CNC(=O)C(CO)NC(=O)C(CC2CNC(=N)N2C2OC(CO)C(O)C(O)C2O)NC(=O)C(CC2CNC(=N)N2)NC(=O)C(Cc2ccc(OC3OC(CO)C(OC4OC(CO)C(OCc5ccc(OCc6ccccc6)cc5)C(O)C4O)C(O)C3O)cc2)NC1=O (stereo not shown) [Example 246a]
MIC Staphylococcus haemolyticus (GC 4546) [2]: 1 µg/mL (≈ 0.685 µM)
MIC Staphylococcus haemolyticus (GC 4546) ([2]; strain GC 4546): 1 µg/mL (≈ 0.685 µM)

From patent publication US6914045B2, “Glycopeptide antibiotics” (Wyeth Holdings Corporation, priority 2001, dated 2005)
